Measurements: patent publication US11357857B2, “Excipient compounds for protein processing” (COMERA LIFE SCIENCES, INC., priority 2014, dated 2022)
Several values for one entry are separate records, joined by “and”; a condition that tells them apart may be missing. Equal values may be shown once. Where a name gives a salt, the structure may show the parent alone. Read-outs that look alike come from different tables or passages of the source.

What was measured:
[1] = excipient 10 mg/mL
[2] = Viscosity of PEG (Mw ~1,000,000) solution in Tris buffer with excipient (Examples 12-13); type: physicochemical
[3] = test system: bovine gamma globulin (BGG); test: Normalized viscosity of 280 mg/mL BGG in 50 mM histidine HCl with primary/secondary excipient combinations (Example 10); type: physicochemical
Description: The primary excipient compounds were selected from compounds having both anionic and aromatic functionality, as listed below in Table 5. The secondary excipient compounds were selected from compounds having either nonionic or cationic charge at pH 6 and either imidazoline or benzene rings, as listed below in Table 5. Formulations of these excipients were prepared in 50 mM histidine hydrochloride buffer solution for viscosity measurement in the following way. […] The individual primary or secondary excipient compounds were then dissolved in 50 mM histidine HCl.

[4] = test system: bovine gamma globulin (BGG); test: Viscosity of 280 mg/mL BGG in histidine buffer pH 6 versus amount of arginine or caffeine added (Example 24); type: physicochemical
[5] = test system: bovine gamma globulin (BGG)
Description: Each buffer solution contained different excipient or combination of excipients as described in the table below. The viscosity of the solutions was measured as described in previous examples.

[6] = test system: bovine gamma globulin (BGG); test: Viscosity of 280 mg/mL BGG in 20 mM histidine pH 6 with different molar caffeine concentrations, microVisc (Example 31); type: physicochemical
Description: The formulations for this Example were prepared in 20 mM histidine buffer for viscosity measurement in the following way.
The viscometer was equipped with an A-10 chip having a channel depth of 100 microns, and was operated at a shear rate of 250 l/s and 25° C. To measure viscosity, the test formulation was loaded into the viscometer, taking care to remove all air bubbles from the pipet. The pipet containing the loaded sample formulation was placed in the instrument and allowed to incubate at the measurement temperature for about five minutes. The instrument was then run until the channel was fully equilibrated with the test fluid, indicated by a stable viscosity reading, and then the viscosity recorded in centipoise.

[7] = test system: bevacizumab (AVASTIN®); test: Viscosity of concentrated AVASTIN with and without caffeine, microVisc (Example 40); details: for % Viscosity Reduction from Excipient: 10 mg/mL caffeine
Description: The sample was concentrated in Amicon Ultra 4 centrifugal concentrator tubes (MWCO 30 kDa) at 3500 rpm. […] AVASTIN® stock solution was diluted with the excipient buffer then concentrated in Amicon Ultra 15 centrifugal concentrator tubes (MWCO 30 kDa). The concentration of the excipient samples was determined by Bradford assay and the viscosity was measured using the RheoSense microVisc.

[8] = test system: bovine gamma globulin (BGG); details: 280 mg/mL BGG, 20 mM histidine pH 6, 25° C.; Excipient A caffeine 15 mg/mL; no Excipient B
[9] = test system: bovine gamma globulin (BGG); test: Normalized viscosity of 280 mg/mL BGG in 20 mM histidine with dimethyl sulfone (Example 42); type: physicochemical
Description: Such formulations were prepared in 20 mM histidine buffer for viscosity measurement in the following way. […].

[10] = biological target: PEGylated lysozyme (Gallus gallus, UniProt P00698); details: excipient 20 mg/mL
Description: The solution was mixed by gently shaking and the viscosity was measured by a RheoSense microVisc equipped with an A10 channel (100 micron depth) at a shear rate of 500 sec−1. The viscometer measurements were completed at ambient temperature.

[11] = biological target: T1, PEGylated BSA (1 PEG chain per BSA molecule) (Bos taurus, UniProt P02769); test: Viscosity of PEGylated BSA with 1 PEG chain per BSA with excipient, microVisc (Example 17); type: physicochemical
T1 construct: purchased Aldrich A7906
Description: To a beaker was added 200 mL of a phosphate buffered saline (Aldrich Cat. #P4417) and 4 g of BSA (Aldrich Cat. #A7906) and mixed with a magnetic bar. Next 400 mg of methoxy polyethylene glycol maleimide, MW=5,000, (Aldrich Cat. #63187) was added. The reaction mixture was allowed to react overnight at room temperature. The following day, 20 drops of HCl 0.1 M were added to stop the reaction. […] The reaction mixture was placed in an Amicon centrifuge tube with a molecular weight cutoff (MWCO) of 30,000 and concentrated to a few milliliters. Next the sample was diluted 20 times with a histidine buffer, 50 mM at a pH of approximately 6, followed by concentrating until a high viscosity fluid was obtained.
The viscometer measurements were completed at ambient temperature.

[12] = test system: bovine gamma globulin (BGG); test: Normalized viscosity of 280 mg/mL BGG in 20 mM histidine with local anesthetic excipients (Example 21); type: physicochemical; details: no B
From the text: The first excipient compound, Excipient A, was selected from a group of compounds having local anesthetic properties.

[13] = Caffeine solubility testing with co-solutes at ambient temperature (Examples 32-33); details: for Observation of caffeine dissolution: caffeine 80 mg/mL
Description: Prepared solutions were used either neat or diluted with deionized water.
A small magnetic stir bar was added to the vial, and the solution was allowed to mix vigorously on a stir plate for about 10 minutes.

[14] = test system: bovine gamma globulin (BGG); details: excipient 50 mg/mL
[15] = test system: bovine gamma globulin (BGG); test: Normalized viscosity of 280 mg/mL BGG in distilled water with excipient combinations (Example 11); type: physicochemical; details: primary excipient 20 mg/mL, no secondary
Description: The primary excipient compounds were selected from compounds having both anionic and aromatic functionality, as listed below in Table 6. The secondary excipient compounds were selected from compounds having either nonionic or cationic charge at pH 6 and either imidazoline or benzene rings, as listed below in Table 6. Formulations of these excipients were prepared in distilled water for viscosity measurement in the following way. […].

[16] = primary excipient 30 mg/mL, no secondary

T1 sequence (P02769 25-607): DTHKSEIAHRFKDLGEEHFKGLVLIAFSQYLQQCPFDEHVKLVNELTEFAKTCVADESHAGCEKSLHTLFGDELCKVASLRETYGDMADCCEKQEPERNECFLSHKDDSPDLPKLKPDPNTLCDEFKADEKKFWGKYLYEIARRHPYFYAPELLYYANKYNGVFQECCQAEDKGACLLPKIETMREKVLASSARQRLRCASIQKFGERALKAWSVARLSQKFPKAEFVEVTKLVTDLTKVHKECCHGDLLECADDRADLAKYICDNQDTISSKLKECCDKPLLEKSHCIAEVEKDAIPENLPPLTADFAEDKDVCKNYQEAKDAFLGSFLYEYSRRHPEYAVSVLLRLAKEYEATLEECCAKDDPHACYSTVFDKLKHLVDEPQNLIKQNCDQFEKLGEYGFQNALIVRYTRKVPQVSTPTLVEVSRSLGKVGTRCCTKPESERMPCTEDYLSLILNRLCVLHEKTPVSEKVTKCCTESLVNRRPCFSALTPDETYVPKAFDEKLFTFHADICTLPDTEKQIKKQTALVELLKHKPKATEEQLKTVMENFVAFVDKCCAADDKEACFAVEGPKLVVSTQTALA
Sequence of PEGylated lysozyme (P00698 19-147): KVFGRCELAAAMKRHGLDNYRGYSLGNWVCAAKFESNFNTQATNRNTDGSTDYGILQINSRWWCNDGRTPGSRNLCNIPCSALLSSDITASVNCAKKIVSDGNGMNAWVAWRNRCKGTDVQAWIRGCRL

In the case of `O=C(O)CC(O)(CC(=O)O)C(=O)O`, the Viscosity [1] is reported as 74.9 cP, the “Viscosity Reduction” value [1] is reported as 6.0% and the Viscosity ([2]; excipient 20 mg/mL) is reported as 73.3 cP. The “Viscosity Reduction” value ([2]; excipient 20 mg/mL) was 28%, the Viscosity ([2]; excipient 40 mg/mL) was 56.8 cP and the “Viscosity Reduction” value ([2]; excipient 40 mg/mL) was 44%.
With `O=S(=O)(O)c1ccc(O)cc1` [4-hydroxybenzene sulfonic acid] the “Normalized Viscosity” value ([3]; primary excipient 31 mg/mL, no secondary) was 0.59.
For `O=C(O)c1ccc(O)cc1` [4-hydroxybenzoic acid], the “Normalized Viscosity” value [3, 16] was 0.61.
Compound `N=C(N)NCCC[C@H](N)C(=O)O` [Arginine] has a Viscosity ([4]; arginine added 53 mg/mL) of 40.9 cP, a Viscosity Reduction ([4]; arginine added 53 mg/mL) of 48% and a Viscosity ([4]; arginine added 79 mg/mL) of 46.1 cP. For the same compound, the Viscosity Reduction ([4]; arginine added 79 mg/mL) was 42%, the Viscosity ([4]; arginine added 105 mg/mL) was 47.8 cP and the Viscosity Reduction ([4]; arginine added 105 mg/mL) was 40%. It also gave a Viscosity ([4]; arginine added 132 mg/mL) of 49.0 cP, a Viscosity Reduction ([4]; arginine added 132 mg/mL) of 38% and a Viscosity ([4]; arginine added 158 mg/mL) of 48.0 cP. It also gave a Viscosity Reduction ([4]; arginine added 158 mg/mL) of 39%, a Viscosity ([4]; arginine added 174 mg/mL) of 50.3 cP and a Viscosity Reduction ([4]; arginine added 174 mg/mL) of 36%. The Viscosity ([4]; arginine added 211 mg/mL) was 51.4 cP, the Viscosity Reduction ([4]; arginine added 211 mg/mL) was 35% and the Viscosity ([5]; arginine 25 mg/ml) was 76.7 cP. The “Viscosity Reduction” value ([5]; arginine 25 mg/ml) was 41%.
In the case of `Cn1c(=O)c2c(ncn2C)n(C)c1=O` [Caffeine], the “Normalized Viscosity” value ([6]; caffeine 5 mM) is reported as 0.81, the Viscosity ([6]; caffeine 5 mM) is reported as 67 cP and the “Normalized Viscosity” value ([6]; caffeine 10 mM) is reported as 0.84. The Viscosity ([6]; caffeine 10 mM) was 70 cP, the “Normalized Viscosity” value ([6]; caffeine 20 mM) was 0.92 and the Viscosity ([6]; caffeine 20 mM) was 77 cP. For the same compound, the “Normalized Viscosity” value ([6]; caffeine 30 mM) was 0.76, the Viscosity ([6]; caffeine 30 mM) was 63 cP and the “Normalized Viscosity” value ([6]; caffeine 40 mM) was 0.78. For the same compound, the Viscosity ([6]; caffeine 40 mM) was 65 cP, the “Normalized Viscosity” value ([6]; caffeine 50 mM) was 0.78 and the Viscosity ([6]; caffeine 50 mM) was 65 cP. The “Normalized Viscosity” value ([6]; caffeine 60 mM) was 0.69, the Viscosity ([6]; caffeine 60 mM) was 57 cP and the “Normalized Viscosity” value ([6]; caffeine 70 mM) was 0.60. For the same compound, the Viscosity ([6]; caffeine 70 mM) was 50 cP, the “Normalized Viscosity” value ([6]; caffeine 80 mM) was 0.60 and the Viscosity ([6]; caffeine 80 mM) was 50 cP. For the same compound, the “Viscosity with 10 mg/mL added caffeine excipient” value ([7]; concentration 190 mg/mL) was 13 cP, the “% Viscosity Reduction from Excipient” value ([7]; concentration 190 mg/mL) was 36% and the “% Viscosity Reduction from Excipient” value ([7]; concentration 266 mg/mL) was 62%. It also gave a Viscosity ([4]; caffeine added 10 mg/mL) of 60 cP, a Viscosity Reduction ([4]; caffeine added 10 mg/mL) of 31% and a Viscosity ([4]; caffeine added 15 mg/mL) of 62 cP. For the same compound, the Viscosity Reduction ([4]; caffeine added 15 mg/mL) was 23%, the Viscosity ([4]; caffeine added 22 mg/mL) was 50 cP and the Viscosity Reduction ([4]; caffeine added 22 mg/mL) was 45%. For the same compound, the “Normalized Viscosity” value [8] was 0.77, the “Normalized Viscosity” value ([3]; no primary, secondary excipient 10 mg/mL) was 0.73 and the Viscosity ([5]; caffeine 10 mg/ml) was 87.9 cP. The “Viscosity Reduction” value ([5]; caffeine 10 mg/ml) was 33%.
For `CS(C)(=O)=O` [Dimethyl sulfone], the Normalized Viscosity ([9]; dimethyl sulfone 15 mg/mL) was 0.92, the Normalized Viscosity ([9]; dimethyl sulfone 30 mg/mL) was 0.71 and 0.72 and the Normalized Viscosity ([9]; dimethyl sulfone 50 mg/mL) was 0.71.
For `c1c[nH]cn1` [Imidazole], the “Normalized Viscosity” value ([3]; no primary, secondary excipient 5 mg/mL) was 0.75.
For `CC(=O)[O-].[K+]` [K acetate, potassium acetate], the Viscosity [10] was 22.6 cP, the “Viscosity Reduction” value [10] was 8% and the Viscosity ([11]; excipient 40 mg/mL) was 89.5 cP. The “Viscosity Reduction” value ([11]; excipient 40 mg/mL) was 60%.
With `CCN(CC)CC(=O)Nc1c(C)cccc1C` [Lidocaine] the “Normalized Viscosity” value ([12]; excipient A 23 mg/mL) was 0.74 and the “Normalized Viscosity” value ([12]; excipient A 45 mg/mL) was 0.73.
For `O=P([O-])([O-])[O-].[K+].[K+].[K+]` [Potassium phosphate, potassium phosphate tribasic], the Viscosity [1] was 72.3 cP and the “Viscosity Reduction” value [1] was 9.3%.
For `CCN(CC)CCOC(=O)c1ccc(N)cc1` [Procaine HCl], the “Normalized Viscosity” value ([12]; excipient A 40 mg/mL) was 0.64, the “Observation of caffeine dissolution” value ([13]; co-solute 30 mg/mL) was “DND” and the “Observation of caffeine dissolution” value ([13]; co-solute 40 mg/mL) was “DND”. For the same compound, the “Dissolution of caffeine enabled relative to reported solubility limit” value ([13]; co-solute in water, ambient temperature (about 23 C)) was “at least about four times” and the “Viscosity Reduction” value [14] was 47%.
For `O=C(O)c1ccccc1O` [Salicylic Acid], the “Normalized Viscosity” value [15] was 0.96 and the “Normalized Viscosity” value [3, 16] was 0.79.
For `O=S(=O)([O-])[O-].[Na+].[Na+]` [Sodium sulfate], the Viscosity [1] was 75.1 cP and the “Viscosity Reduction” value [1] was 5.8%.
With Alpha-Cyclodextrin sulfated Na salt the Viscosity ([11]; excipient 20 mg/mL) was 151.5 cP and the “Viscosity Reduction” value ([11]; excipient 20 mg/mL) was 34%.
